Laboratory results reported in US9085605B2, “Chemical synthesis and anti-tumor and anti-metastatic effects of dual functional conjugate” (Shenzhen Salubris Pharmaceuticals Co., Ltd., priority 2010, dated 2015).
Several values for one entry are separate records, joined by “and”; a condition that tells them apart may be missing. Identical values can stand only once.

Legend:
[1] = system: human breast cancer line MDA-MB-231; experiment: Tumor growth inhibition in nude mice xenograft model, MDA-MB-231
Protocol: • 1. […] Drug administration dose were set as: 10 mg/kg, 15 mg/kg, and 20 mk/kg, drug administration volume was 0.2 mL/20 g. • 2. […] MDA [Peptide (P) 0.54 mg/mL (0.001M), Example 10], a colorless and clear liquid, was prepared by the commission, can be directly used after the repackaging in a sterile condition, stored at 4° C. […] Certificate NO. […] SYSK (BeiJing) 2004-0001. Experiment Methods:
The mice were divided into groups and administrated drug after 11 days.
The mice were divided into eight groups, each group had 6-8 mice. The groups contained Negative control. […] After grouping, all mice were administrated with drug by intraperitoneal injection once a day depends on their body weight.
Other groups were administered with drugs for 24 times successively. The experiment was completed 24 h after the last administration.
The mice were sacrificed, and tumors were isolated and their weight was measured, and the inhibition rate of tumor growth by drugs were calculated. […] Calculation methods and formula were omitted.

[2] = system: Human lung cancer H1975; experiment: Xenograft tumor nude mice screening, H1975; type: in vivo, BALB/c nu mice; conditions: 30 mg/kg × 12, i.p.
Protocol: (§1) Certificate NO. SCXK (BeiJing) 2005-0013. • Cell lines: The tumor cell lines were passaged and cultured by our Lab, some of them was obtained from ATCC. • The tumor cell lines included: Human breast cancer MX-1 and MCF-7. • Human ovarian cancer A2780, and clear Human ovarian cell cancer ES-2, • Human lung cancer H1975 and A549. Experiment Method: • 1. […] The administration dose and treatment progress was determined based from the preliminary experiments, which had solid effects and the shortest treatment period—the dose of 30 mg/kg/day, and the administration duration time of every lot experiment was not more than 12 days.

[3] = system: Human ovarian cancer A2780; experiment: Xenograft tumor nude mice screening, A2780; type: in vivo, BALB/c nu mice; conditions: 30 mg/kg i.p., 10~12 times
Protocol: as §1

[4] = 30 mg/kg × 12, i.p. once a day, then withdrawn, larger starting tumors

## CC(=O)O[C@H]1C(=O)[C@@]2(C)[C@H]([C@H](OC(=O)c3ccccc3)[C@]3(O)C[C@H](OC(=O)[C@H](OC(=O)CCC(=O)NCCCCC(NC(=O)CC[C@H](NC(=O)C(C)NC(=O)/C=C/c4ccc(Cl)cc4)C(N)=O)C(N)=O)[C@@H](NC(=O)c4ccccc4)c4ccccc4)C(C)=C1C3(C)C)[C@]1(OC(C)=O)CO[C@@H]1C[C@@H]2O (stereo partly drawn) [MTC-220]
[1]; 10 mg/kg × 24, i.p. once a day
  Body weight Beginning: 17.4 ± 1.47 g
  Body weight End: 20.6 ± 1.64 g
  RTV: 12.62 ± 5.924
  T/C: 70.0%
  TGI: 37.3%
  Tumor volume Beginning: 135 ± 70.6 mm^3
  Tumor volume End: 1655 ± 929.4 mm^3
  Tumor weight: 1.78 ± 1.016 g
[1]; 15 mg/kg × 24, end of the experiment
  Body weight increase compared to the beginning of the grouping: 2.7 g
[1]; 15 mg/kg × 24, i.p. once a day
  Body weight Beginning: 17.9 ± 0.88 g
  Body weight End: 20.6 ± 0.91 g
  RTV: 7.12 ± 4.064
  T/C: 39.5% and 37.5% and 39.49%
  TGI: 57.4%
  Tumor volume Beginning: 148 ± 80.5 mm^3
  Tumor volume End: 967 ± 590.4 mm^3
  Tumor weight: 1.21 ± 0.813 g
[1]; 20 mg/kg × 24, end of the experiment
  Body weight increase compared to the beginning of the grouping: 1.9 g
[1]; 20 mg/kg × 24, i.p. once a day
  Body weight Beginning: 17.0 ± 1.11 g
  Body weight End: 18.9 ± 1.58 g
  RTV: 4.58 ± 2.456
  T/C: 25.40%
  TGI: 72.2%
  Tumor volume Beginning: 133 ± 57.6 mm^3
  Tumor volume End: 642 ± 482.3 mm^3
  Tumor weight: 0.79 ± 0.654 g
[1]; 30 mg/kg × 12, end of the experiment
  Body weight increase compared to the beginning of the grouping: 2.6 g
[1]; [4]
  Body weight Beginning: 17.5 ± 1.09 g
  Body weight End: 20.1 ± 0.98 g
  RTV: 1.11 ± 1.366
  T/C: 6.16%
  TGI: >87.0%
  Tumor volume Beginning: 340 ± 58.4 mm^3
  Tumor volume End: 391 ± 480.5 mm^3
  Tumor weight: 0.37 ± 0.413 g
[2]
  Body weight Beginning: 24.1 ± 1.20 g
  Body weight End: 26.6 ± 0.76 g
  RTV: 0.66 ± 0.464
  Tumor volume Beginning: 135 ± 50.6 mm^3
  Tumor volume End: 127 ± 106.1 mm^3
  Tumor weight: 0.13 ± 0.103 g
[3]
  Inhibition of tumor growth (in words): at certain degree, but didn't attain the valid standard
